Earlier results as cited in EP4631497A1, “LIPOSOMAL COMPOSITION FOR TOPICAL ADMINISTRATION” (priority 2024, dated 2025).
Where two headings read alike, the source gives them in different places.

Wasserlöslichkeit (water)	Wasserlöslichkeit (bei 25°C)	Structure (SMILES)
< 1 mg/mL		C[C@@H]1O[C@@H](O[C@H]2[C@H](Oc3cc(O)c4c(c3)O[C@H](c3ccc(O)cc3)CC4=O)O[C@H](CO)[C@@H](O)[C@@H]2O)[C@H](O)[C@H](O)[C@H]1O [Naringin]
	< 0,1 mg/ml	O=C(CCc1ccc(O)cc1)c1c(O)cc(O)cc1O [Phloretin]
	< 0,1 mg/ml	Oc1ccc(C=Cc2cc(O)cc(O)c2)cc1 [Resveratrol]
	< 1 mg/mL	O=C1c2c(O)cc(O)cc2O[C@H](c2ccc(O)c(O)c2)[C@H]1O [Taxifolin]
